Reference: ChEMBL document CHEMBL1201862, “PubChem BioAssay data set” (2004)
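Tested at 5 concentrations; 48 h exposure; 96-well plates; endpoints linearly interpolated, else capped at highest concentration. Abbreviation: GI50, concentration required for 50% inhibition of growth.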 The source made the active and inactive calls. Rule as the data show it: active = GI50 up to about 1.1 µM and inactive = higher.

Legend:
Assay in all cases: DTP human tumour cell line panel, 48 h
XF498 = system: XF498
A498 = system: A498
SW-620 = system: SW-620
SF-539 = system: SF-539
KM-20L2 = system: KM-20L2
NCI-H522 = system: NCI-H522
DMS-273 = system: DMS-273
U-251 = system: U-251
KM12 = system: KM12
OVCAR-4 = system: OVCAR-4
UACC-257 = system: UACC-257
LOX IMVI = system: LOX IMVI
SNB-78 = system: SNB-78
Malme-3M = system: Malme-3M
M14 = system: M14
NCI-H460 = system: NCI-H460
SK-MEL-2 = system: SK-MEL-2
786-0 = system: 786-0
COLO 205 = system: COLO 205
OVCAR-8 = system: OVCAR-8
IGROV-1 = system: IGROV-1
SK-MEL-5 = system: SK-MEL-5
DLD-1 = system: DLD-1
DMS-114 = system: DMS-114
RXF 393 = system: RXF 393
UO-31 = system: UO-31
ACHN = system: ACHN
OVCAR-3 = system: OVCAR-3
HCC 2998 = system: HCC 2998
HCT-15 = system: HCT-15
RPMI-8226 = system: RPMI-8226
OVCAR-5 = system: OVCAR-5
SNB-75 = system: SNB-75
SN12C = system: SN12C
UACC-62 = system: UACC-62
CCRF-CEM = system: CCRF-CEM
HOP-18 = system: HOP-18
HOP-92 = system: HOP-92
K562 = system: K562
HL-60 = system: HL-60
SF-268 = system: SF-268
CAKI-1 = system: CAKI-1
SK-MEL-28 = system: SK-MEL-28
RXF 631 = system: RXF 631
SR = system: SR
HCT-116 = system: HCT-116
M19-MEL = system: M19-MEL
NCI-H226 = system: NCI-H226
HT-29 = system: HT-29
LXFL 529 = system: LXFL 529
A549 = system: A549
TK-10 = system: TK-10
HOP-62 = system: HOP-62
SNB-19 = system: SNB-19
MOLT-4 = system: MOLT-4
SF-295 = system: SF-295
NCI-H23 = system: NCI-H23
EKVX = system: EKVX

Q: With `Cc1c(C(=O)C/C(=N/NC(=O)C[N+](C)(C)C)C(=O)Nc2ccc(Cl)cc2)[n+]([O-])c2ccccc2[n+]1[O-]` as the molecule, how does the GI50 (XF498) read?
A: > 100 µM (inactive)

Q: What about the GI50 (A498) of the same molecule?
A: > 100 µM (inactive)

Q: What about the GI50 (SW-620) of the same molecule?
A: > 100 µM (inactive)

Q: And the GI50 (SF-539)?
A: > 100 µM (inactive)

Q: And the GI50 (KM-20L2)?
A: > 100 µM (inactive)

Q: What about the GI50 (NCI-H522) of the same molecule?
A: > 100 µM (inactive)

Q: And the GI50 (DMS-273)?
A: > 100 µM (inactive)

Q: And the GI50 (U-251)?
A: > 100 µM (inactive)

Q: And the GI50 (KM12)?
A: > 100 µM (inactive)

Q: And the GI50 (OVCAR-4)?
A: > 100 µM (inactive)

Q: What about the GI50 (UACC-257) of the same molecule?
A: > 100 µM (inactive)

Q: And the GI50 (LOX IMVI)?
A: > 100 µM (inactive)

Q: What about the GI50 (SNB-78) of the same molecule?
A: > 100 µM (inactive)

Q: What about the GI50 (Malme-3M) of the same molecule?
A: > 100 µM (inactive)

Q: What about the GI50 (M14) of the same molecule?
A: > 100 µM (inactive)

Q: What about the GI50 (NCI-H460) of the same molecule?
A: > 100 µM (inactive)

Q: What about the GI50 (SK-MEL-2) of the same molecule?
A: > 100 µM (inactive)

Q: And the GI50 (786-0)?
A: > 100 µM (inactive)

Q: And the GI50 (COLO 205)?
A: > 100 µM (inactive)

Q: What about the GI50 (OVCAR-8) of the same molecule?
A: > 100 µM (inactive)

Q: What about the GI50 (IGROV-1) of the same molecule?
A: > 100 µM (inactive)

Q: And the GI50 (SK-MEL-5)?
A: > 100 µM (inactive)

Q: And the GI50 (DLD-1)?
A: > 100 µM (inactive)

Q: What about the GI50 (DMS-114) of the same molecule?
A: > 100 µM (inactive)

Q: What about the GI50 (RXF 393) of the same molecule?
A: > 100 µM (inactive)

Q: And the GI50 (UO-31)?
A: > 100 µM (inactive)

Q: What about the GI50 (ACHN) of the same molecule?
A: > 100 µM (inactive)

Q: And the GI50 (OVCAR-3)?
A: > 100 µM (inactive)

Q: And the GI50 (HCC 2998)?
A: > 100 µM (inactive)

Q: What about the GI50 (HCT-15) of the same molecule?
A: > 100 µM

Q: What about the GI50 (RPMI-8226) of the same molecule?
A: > 100 µM (inactive)

Q: And the GI50 (OVCAR-5)?
A: > 100 µM (inactive)

Q: And the GI50 (SNB-75)?
A: > 100 µM (inactive)

Q: And the GI50 (SN12C)?
A: > 100 µM (inactive)

Q: And the GI50 (UACC-62)?
A: > 100 µM (inactive)

Q: What about the GI50 (CCRF-CEM) of the same molecule?
A: > 100 µM (inactive)

Q: What about the GI50 (HOP-18) of the same molecule?
A: > 100 µM (inactive)

Q: What about the GI50 (HOP-92) of the same molecule?
A: > 100 µM (inactive)

Q: And the GI50 (K562)?
A: > 100 µM (inactive)

Q: What about the GI50 (HL-60) of the same molecule?
A: > 100 µM (inactive)

Q: And the GI50 (SF-268)?
A: > 100 µM (inactive)

Q: What about the GI50 (CAKI-1) of the same molecule?
A: > 100 µM (inactive)

Q: And the GI50 (SK-MEL-28)?
A: > 100 µM (inactive)

Q: And the GI50 (RXF 631)?
A: > 100 µM (inactive)

Q: What about the GI50 (SR) of the same molecule?
A: > 100 µM (inactive)

Q: What about the GI50 (HCT-116) of the same molecule?
A: > 100 µM (inactive)

Q: What about the GI50 (M19-MEL) of the same molecule?
A: > 100 µM (inactive)

Q: What about the GI50 (NCI-H226) of the same molecule?
A: > 100 µM (inactive)

Q: What about the GI50 (HT-29) of the same molecule?
A: > 100 µM (inactive)

Q: And the GI50 (LXFL 529)?
A: > 100 µM (inactive)

Q: What about the GI50 (A549) of the same molecule?
A: > 100 µM (inactive)

Q: What about the GI50 (TK-10) of the same molecule?
A: > 100 µM (inactive)

Q: And the GI50 (HOP-62)?
A: > 100 µM (inactive)

Q: And the GI50 (SNB-19)?
A: > 100 µM (inactive)

Q: And the GI50 (MOLT-4)?
A: > 100 µM (inactive)

Q: What about the GI50 (SF-295) of the same molecule?
A: > 100 µM (inactive)

Q: What about the GI50 (NCI-H23) of the same molecule?
A: > 100 µM (inactive)

Q: What about the GI50 (EKVX) of the same molecule?
A: > 100 µM (inactive)
